These results are taken from US5726156A, “Cytokine regulatory agents and methods of use in pathologies and conditions associated with altered cytokine levels” (Trega Biosciences, Inc., priority 1995, dated 1998).

Assay [1] deals with TNF-α. Briefly: Reduction of LPS-induced TNF levels in mice (IP dosing). It is filed as in vivo. Conditions: 150 μg/mouse IP, one min before LPS 5 mg/kg IP. Here is the method:
Balb/c female mice weighing approximately 20 g were placed into two groups, a control group and a treated group. Five mg/kg of LPS in 0.9% saline was administered by intraperitoneal (IP) injection into the control mice. Mice in the treated group were first injected IP with 30 μg EX-2 or 150 μg EX-3 in saline, then, one min after EX-2 or EX-3 was administered, the mice received LPS as described for the control group.
Blood samples were collected from the orbital sinus of treated and control mice at various times up to four hr after LPS was administered. The plasma was separated by centrifugation at 3000×g for 5 min, then diluted with four volumes of 1× phosphate buffer saline (pH 7.4) containing 1% bovine serum albumin. A 100 μl sample of serum was assayed by ELISA for TNF-α (Genzyme; Cambridge Mass.).
The mean (+/- SEM) TNF-α level in six mice from each group was determined and the percent reduction in TNF levels was calculated.

For assay [2], the system named is Carageenan-induced paw swelling. In words: Carageenan-induced paw swelling. It is filed as in vivo, mice. Conditions: 1 μg/mouse; 2 hr time point. Here is the method: Carageenan-induced paw swelling was induced using a modification of the methods of Hiltz and Lipton, Peptides 11:979-982 (1990); Vinegar et al., Fed. Proc. 46:118-126 (1987); and Vinegar et al., J. Pharmacol. Expt. Therap. 166:96-103 (1969), each of which is incorporated herein by reference. Briefly, adult female Balb/c mice were anesthetized by IP injection of 7 mg/kg ketoamine and 0.6 mg/kg rompun. Foot pad thickness was measured using a spring loaded micrometer (Swiss Precision Instruments). Foot pad thickness was expressed in units of 1/100 inch. After baseline measurements were obtained, mice were injected into a hind foot pad with either 0.2 ml physiologic saline (control) or varying doses of EX-2 or EX-3 in 0.2 ml saline (treated). The first injection was followed immediately by injection of 0.02 ml of 0.15% K-carageenan (Sigma Chemical Co.; St. Louis, Mo.).
Hind foot pad thickness was measured hourly for six hr, the change in thickness was determined and the percent reduction in swelling due to treatment with EX-2 was calculated.

Assay [3] deals with LPS-induced lethality. In words: LPS-induced lethality (IP dosing). It is filed as in vivo, mice. Conditions: 11 × 300 μg/mouse IP (3.3 mg), every 4 hr; 0.6 mg LPS. Here is the method: These experiments were performed based on information reported by Rivier etal., Endocrinology 125:2800-2805 (1989), which is incorporated herein by reference. Adult female Balb/c mice were provided food and water ad libitum. Mice were injected IP every four hr for 40 hr with 30 to 300 μg EX-2, EX-3 or EX-4 in 0.2 ml saline (treated group) or with 0.2 ml saline, alone (control group) (10 mice per group). Immediately following the first injection, 0.6 mg LPS endotoxin in 0.2 ml saline was administered to each mouse. Following LPS injection, EX-2 or saline was administered to the treated mice or the control mice, respectively, every 4 hr for 36 hr.

In assay [4] the test system is LPS-induced fever. In words: LPS-induced temperature increase (fever). It is filed as in vivo, rats. Conditions: 150 μg/kg IP; 6 hr following LPS injection. The method, then: Male Wistar rats (45-75 days old) were placed in a temperature controlled room held at 26° C., which is thermoneutral for the normal body temperature of rats, and were maintained in the room with free access to food and water for 24 hr prior to testing. On the morning of the study, rats were marked for identification and weighed. The temperature of each rat was determined by placing the animal in a regulatory cage designed to minimize stress and inserting a temperature probe (YSI probe #402) 3-5 cm into the animal's rectum. The temperature was recorded 15 sec after the reading stabilized. Measurements were repeated 1 hr later to establish a baseline temperature for each rat.
After the baseline temperatures were established, rats were injected IP with saline, IL-1β or LPS endotoxin. Rats then were injected IP with either saline (control) or various concentrations of EX-2, EX-3, or EX-4 (treated). The temperature of the rats was measured every hr for 6 hr and the inhibition by EX-2, EX-3, or EX-4 of the rise in temperature due to IL-1β or LPS was determined.
In addition, treatment with 50 or 150 μg/kg EX-2 inhibited LPS-induced fever by 45% or 52%, respectively, when measured 6 hr following LPS injection. Furthermore, treatment with 150 μg/kg EX-3 or EX-4 inhibited LPS-induced fever by 57% and 52%, respectively (Table II).

The test system of assay [5] is arachidonic acid-induced ear swelling. Briefly: Arachidonic acid-induced ear swelling. It counts as in vivo, mice. As to conditions: 100 μg/mouse IP 30 min prior to AA; 60 min after AA. The method, then:
Experiments were performed using female Balb/c mice weighing 18-23 grams. Saline or 100 μg EX-2 or EX-3 was administered IP, 30 min prior to topical application of arachidonic acid (AA). A 10 μl pipet was used to apply 10 μl AA solution (100 mg/ml ethanol; Calbiochem-Novabiochem; San Diego Calif.) to the inner and outer surfaces of the right ear of each mouse. Ten μl ethanol, alone, was applied to the inner and outer surface of the left ear of each mouse. Ear thickness was measured with a hand-held spring loaded caliper immediately before and 60 min after AA application. Increase in ear thickness was calculated by subtracting the change observed in the control ear from the change observed in AA-treated ear. The value for each group (saline and control) is the average of the swelling observed in the individual mice in each group. The percent reduction of swelling is based on the swelling observed in the saline control group.

The subject of assay [6] is morphine-induced respiratory depression. In words: Morphine-induced respiratory depression. It counts as in vivo, rabbits. Conditions: 10 + 20 + 20 μg/kg/rabbit iv; end of experiment (80 min). Here is the method:
Male Shelton rabbits (3-4 kg) were restrained and fitted around the thorax, just behind the front limbs, with a respiration transducer (Model F-RCT; Grass Instruments; Quincy Ma). The transducer was connected to a grass polygraph via an EKG cable. An intravenous line was established for drug administration by cannulating the marginal ear vein using a 25 G butterfly needle.
Rabbit breathing was allowed to stabilize, then morphine sulfate (2 mg/kg in 0.5 ml saline) was administered by intravenous (iv) injection and respiratory rate and depth were monitored for 10 min. A second dose of morphine was administered, then, after 10 min, EX-2 or EX-3 (10 μg/kg in 0.5 ml saline) was administered, iv, and rabbits were monitored for 20 min. Two additional doses of EX-2 or EX-3 (20 μg/kg in 1.0 ml saline) were administered at 20 min intervals, i.e., 40 min and 60 min after the first morphine injection.
Results were calculated as the percent change from baseline values and are expressed as the difference of the mean value of the treated group minus the mean value of the control group at the end of the experiment (80 min).

Assay [7] deals with TNF-α. Briefly: LPS-induced TNF-α levels, oral (gavage) dosing. It is filed as in vivo, mice. As to conditions: one min before 0.1 mg LPS IP. Here is the method: The ability of orally administered cytokine regulatory agents to reduce LPS-induced TNF-α levels also was examined. Balb/c female mice (20 g) were administered 150 μg or 300 μg EX-2, EX-3, EX-5 or EX-6 in 100 μl saline by gavage. Control mice received 100 μl saline, alone. One min later, 0.1 mg LPS was administered by IP injection. Samples were collected and TNF-α levels were determined as described in Example III, above.
The mean TNF-α levels in the mice from each group (n=9-20) was determined and the percent reduction in TNF-α levels was calculated.

Assay [8] relates to LPS-induced lethality. Briefly: LPS-induced lethality, oral (gavage) dosing. Conditions: control mice 0%. It counts as in vivo. The method, then: The LPS-induced lethality studies were performed based on information reported by Rivier et al., supra, 1989. Adult female Balb/c mice were provided food and water ad libitum. Mice were administered 150 μg or 300 μg EX-2, EX-3, EX-5 or EX-6 in 100 μl saline by gavage every 4 hr for 40 hr (total doses of 1.65 mg and 3.3 mg, respectively). Control mice received 100 μl saline, alone. Immediately following the first dose of cytokine regulatory agent or saline, 0.6 mg LPS in 0.2 ml saline was administered by IP injection.

The structures appear in SMILES notation. “And” between values parts separate entries of the source, which are not always exact repeats. Equal entries are not always repeated. Square brackets hold non-standard residues; d marks the D form. Peptide text beside a SMILES is read from it.

Take `CC(=O)N[C@H](C(=O)N[C@@H](CCC(N)=O)C(=O)N[C@@H](Cc1c[nH]cn1)C(=O)N[C@H](Cc1ccccc1)C(=O)N[C@@H](CCCNC(=N)N)C(=O)N[C@H](Cc1c[nH]c2ccccc12)C(=O)NCC(N)=O)C1CCCCC1` [EX-3, Ac-(cyclohexyl)Gly-Gln-His-(D) Phe-Arg- (D) Trp-Gly-NH2]: the “Reduction in TNF levels” value in assay [1] amounted to 56%. In addition, the “Reduction in Carageenan-induced Paw Swelling” value in assay [2] worked out at 49%. For the same molecule, the “Inhibition of LPS-induced Lethality (increase in survival vs control)” value in assay [3] is 86%. The “Reduction in LPS-induced Fever” value in assay [4] is listed as 57%. The “Reduction in arachidonic acid-induced Ear Swelling” value in assay [5] was determined as 62%. Moreover, the “Reduction in Morphine-induced Respiratory Depression” value in assay [6] was 65%. For the same molecule, the “percent reduction in TNF-α levels, oral dosing” value in assay [7] (150 μg by gavage) was 49%; in assay [7] (300 μg by gavage), 40%.
For `CC(=O)N[C@@H](Cc1c[nH]cn1)C(=O)N[C@H](Cc1ccccc1)C(=O)N[C@@H](CCCNC(=N)N)C(=O)N[C@H](Cc1c[nH]c2ccccc12)C(N)=O` [EX-6, Ac-His-(D)Phe-Arg-(D)TrP-NH2], in assay [8] (1.65 mg total (150 μg by gavage every 4 hr for 40 hr)), the “survival after LPS, oral dosing” value stood at 68%.
In the case of `CC(=O)N[C@H](Cc1ccccc1)C(=O)N[C@@H](CCCNC(=N)N)C(=O)N[C@H](Cc1c[nH]c2ccccc12)C(N)=O` [EX-4, Ac- (D) Phe-Arg-(D) Trp-NH2], the “Reduction in TNF levels” value in assay [1] is recorded as 53%. The “Inhibition of LPS-induced Lethality (increase in survival vs control)” value in assay [3] was determined as 75%. For the same molecule, in assay [4], the “Reduction in LPS-induced Fever” value came out at 52%.
Consider `CC(=O)N[C@@H](Cc1c[nH]cn1)C(=O)N[C@H](Cc1ccccc1)C(=O)N[C@@H](CCCNC(=N)N)C(=O)N[C@H](Cc1c[nH]c2ccccc12)C(=O)NCC(N)=O` [EX-5, Ac-His- (D) Phe-Arg- (D) Trp-Gly-NH2] (Ac-H[dF]R[dW]G-NH2), for which the “survival after LPS, oral dosing” value in assay [8] (3.3 mg total (300 μg by gavage every 4 hr for 40 hr)) is 63% and 44%. Further, the “percent reduction in TNF-α levels, oral dosing” value in assay [7] (300 μg by gavage) is given as 44%.
